Measurements published in ChEMBL document CHEMBL1201862, “PubChem BioAssay data set” (2004).
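Exposure lasted 48 hours, with cells grown in 96-well plates and compounds tested at five concentrations. GI50: concentration for 50% inhibition of growth.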 Active and inactive are the calls of the source. Cut-off read from the data, not from the text of the source: active = GI50 up to about 1.1 µM and inactive = higher.

What was measured:
Test in all cases: inhibition of tumour cell growth, NCI panel, 48 h
[1] = system: 786-0
[2] = system: ACHN
[3] = system: COLO 205
[4] = system: DU-145
[5] = system: HCT-15
[6] = system: HOP-92
[7] = system: HT-29
[8] = system: K562
[9] = system: Malme-3M
[10] = system: NCI-H460
[11] = system: OVCAR-5
[12] = system: SK-OV-3
[13] = system: SN12C
[14] = system: T47D
[15] = system: TK-10
[16] = system: U-251
[17] = system: UO-31
[18] = system: NCI-H226
[19] = system: SNB-75

| Structure (SMILES) | GI50 [1] | GI50 [2] | GI50 [3] | GI50 [4] | GI50 [5] [µM] | GI50 [6] | GI50 [7] | GI50 [8] | GI50 [9] | GI50 [10] | GI50 [11] | GI50 [12] | GI50 [13] | GI50 [14] | GI50 [15] | GI50 [16] | GI50 [17] | GI50 [18] | GI50 [19] |
| --- | --- | --- | --- | --- | --- | --- | --- | --- | --- | --- | --- | --- | --- | --- | --- | --- | --- | --- | --- |
| CC(C)(CO)NC(=O)c1cccs1 | > 100 µM (inactive) | > 100 µM (inactive) | > 100 µM (inactive) | > 100 µM (inactive) | > 100 | > 100 µM (inactive) | > 100 µM (inactive) | > 100 µM (inactive) | > 100 µM (inactive) | > 100 µM (inactive) | > 100 µM (inactive) | > 100 µM (inactive) | > 100 µM (inactive) | > 100 µM (inactive) | > 100 µM (inactive) | > 100 µM (inactive) | > 100 µM (inactive) | – | – |
| COC(=O)[C@@]12C(=O)CCC(=O)C1C1C(=CC2C)O[C@@H]2OC3(CCCCC3)O[C@H]12 (stereo partly specified) | > 83.6 µM (inactive) | > 55.1 µM (inactive) | > 68.1 µM (inactive) | – | 54.2 | 40.5 µM (inactive) | 47.6 µM (inactive) | 40.3 µM (inactive) | > 100 µM (inactive) | > 100 µM (inactive) | > 100 µM (inactive) | > 100 µM (inactive) | > 100 µM (inactive) | – | > 100 µM (inactive) | > 100 µM (inactive) | > 100 µM (inactive) | > 100 µM (inactive) | > 85.1 µM (inactive) |
| CCCCCCCCCCC(=O)CC(=O)c1c(O)cccc1O | 36.1 µM (inactive) | 30 µM (inactive) | 31 µM (inactive) | – | 47.4 | 27.1 µM (inactive) | 30.7 µM (inactive) | 24.9 µM (inactive) | 35.9 µM (inactive) | 34.7 µM (inactive) | 19.7 µM (inactive) | 38.1 µM (inactive) | 29.3 µM (inactive) | – | 46.2 µM (inactive) | 21.5 µM (inactive) | 29 µM (inactive) | 17.9 µM (inactive) | 40.3 µM (inactive) |
| O=C1OC(c2ccccc2)=N/C1=C\c1cccc2ccccc12 | > 100 µM (inactive) | > 100 µM (inactive) | > 100 µM (inactive) | – | > 100 | 52.4 µM (inactive) | > 100 µM (inactive) | > 100 µM (inactive) | > 100 µM (inactive) | > 100 µM (inactive) | > 100 µM (inactive) | > 100 µM (inactive) | > 100 µM (inactive) | – | > 100 µM (inactive) | > 100 µM (inactive) | > 100 µM (inactive) | > 100 µM (inactive) | > 100 µM (inactive) |
| CCCOC(=O)C1CCC(=O)N1C(=O)C(Cl)Cl (stereo unspecified) | > 100 µM (inactive) | > 100 µM (inactive) | > 100 µM (inactive) | – | > 100 | > 100 µM (inactive) | > 100 µM (inactive) | > 100 µM (inactive) | > 100 µM (inactive) | > 100 µM (inactive) | > 100 µM (inactive) | > 100 µM (inactive) | > 100 µM (inactive) | – | > 100 µM (inactive) | > 100 µM (inactive) | > 100 µM (inactive) | > 100 µM (inactive) | 59 µM (inactive) |
| CC(=O)OCC1(C)C(OC(C)=O)CCC2(C)C(CC(OC(C)=O)C3=CCOC3=O)C(O)(CO)CCC12 (stereo unspecified) | > 100 µM (inactive) | > 100 µM (inactive) | > 100 µM (inactive) | – | – | > 100 µM (inactive) | > 100 µM (inactive) | > 100 µM (inactive) | > 100 µM (inactive) | > 100 µM (inactive) | > 100 µM (inactive) | > 100 µM (inactive) | > 100 µM (inactive) | – | > 100 µM (inactive) | > 100 µM (inactive) | > 100 µM (inactive) | > 100 µM (inactive) | > 100 µM (inactive) |
| Cn1c(=O)c2c(nc3n(Cc4ccccc4)c(=O)c(NCCCBr)cn23)n(C)c1=O | 23.9 µM (inactive) | 32.6 µM (inactive) | > 100 µM (inactive) | > 100 µM (inactive) | > 100 | 18.1 µM (inactive) | > 100 µM (inactive) | > 100 µM (inactive) | – | > 100 µM (inactive) | > 100 µM (inactive) | 36.6 µM (inactive) | > 100 µM (inactive) | > 100 µM (inactive) | 38.5 µM (inactive) | 34.1 µM (inactive) | > 100 µM (inactive) | 31.5 µM (inactive) | 24.8 µM (inactive) |
| N#CN=C(NCc1ccccc1)NCc1ccccc1 | > 60.7 µM (inactive) | > 64.9 µM (inactive) | > 42.9 µM (inactive) | – | > 40.3 | > 100 µM (inactive) | > 100 µM (inactive) | > 75.3 µM (inactive) | > 100 µM (inactive) | > 64.7 µM (inactive) | > 100 µM (inactive) | > 100 µM (inactive) | > 100 µM (inactive) | – | > 100 µM (inactive) | > 48.2 µM (inactive) | > 100 µM (inactive) | > 100 µM (inactive) | > 100 µM (inactive) |
| CC1(C)COC(c2cccc(C3=NC(C)(C)CO3)c2)=N1 | > 100 µM (inactive) | > 100 µM (inactive) | > 100 µM (inactive) | > 100 µM (inactive) | > 100 | > 100 µM (inactive) | > 100 µM (inactive) | > 100 µM (inactive) | > 100 µM (inactive) | > 100 µM (inactive) | > 100 µM (inactive) | – | – | 3.75 µM (inactive) | > 100 µM (inactive) | > 100 µM (inactive) | > 100 µM (inactive) | > 100 µM (inactive) | – |
| CN(C)c1nc(N)nc(CCl)n1 | 22.3 µM (inactive) | 15.8 µM (inactive) | 29.2 µM (inactive) | 99.5 µM (inactive) | 29.4 | 20.7 µM (inactive) | 41.1 µM (inactive) | 29 µM (inactive) | – | 32.7 µM (inactive) | 65.9 µM (inactive) | 56.2 µM (inactive) | 43.4 µM (inactive) | 60.4 µM (inactive) | 72.8 µM (inactive) | 35.2 µM (inactive) | 12.4 µM (inactive) | 36.8 µM (inactive) | 0.912 µM (active) |
| COc1ccc(Cc2c(=O)[nH]nc3ccccc23)cc1 | > 100 µM (inactive) | > 100 µM (inactive) | > 100 µM (inactive) | – | > 100 | > 100 µM (inactive) | > 100 µM (inactive) | > 100 µM (inactive) | > 100 µM (inactive) | > 100 µM (inactive) | > 100 µM (inactive) | > 100 µM (inactive) | > 100 µM (inactive) | – | > 100 µM (inactive) | – | 43.8 µM (inactive) | 85.7 µM (inactive) | 29 µM (inactive) |
| CCOC(=O)C12C(C(=O)OC)=C(C)N(NC(=O)Nc3ccccc3)C1(N)N(NC(=O)Nc1ccccc1)C(C)=C2C(=O)OC (stereo unspecified) | 39.5 µM (inactive) | 34.1 µM (inactive) | > 41.1 µM (inactive) | – | 35.2 | 24.9 µM (inactive) | 24.5 µM (inactive) | 29.9 µM (inactive) | 21.6 µM (inactive) | 40.3 µM (inactive) | 38.5 µM (inactive) | > 59.8 µM (inactive) | > 61.5 µM (inactive) | – | 36.1 µM (inactive) | 17.7 µM (inactive) | 40 µM (inactive) | > 100 µM (inactive) | 33.7 µM (inactive) |
| O=C1c2ccccc2C(=O)N1/N=C\c1ccc(Br)cc1 | > 10 µM (inactive) | > 10 µM (inactive) | > 100 µM (inactive) | – | > 10 | > 10 µM (inactive) | > 10 µM (inactive) | > 10 µM (inactive) | > 10 µM (inactive) | > 10 µM (inactive) | > 10 µM (inactive) | > 100 µM (inactive) | > 10 µM (inactive) | – | > 10 µM (inactive) | > 100 µM (inactive) | > 10 µM (inactive) | > 10 µM (inactive) | > 10 µM (inactive) |
| Cc1cc(Cl)ccc1N1C(=O)C(=O)C(c2nc3ccccc3s2)/C(=N\NC(=O)c2ccccc2O)C1=O (stereo unspecified) | > 100 µM (inactive) | > 100 µM (inactive) | > 100 µM (inactive) | – | > 100 | 46.7 µM (inactive) | > 100 µM (inactive) | > 100 µM (inactive) | > 100 µM (inactive) | > 100 µM (inactive) | > 100 µM (inactive) | > 100 µM (inactive) | > 100 µM (inactive) | – | > 100 µM (inactive) | > 100 µM (inactive) | > 100 µM (inactive) | > 100 µM (inactive) | > 100 µM (inactive) |
| CC(C)N(C(=O)C12C3C4C5(C#N)C3C1(I)C5C42I)C(C)C (stereo unspecified) | > 46.1 µM (inactive) | > 100 µM (inactive) | > 42 µM (inactive) | – | > 41.9 | > 100 µM (inactive) | > 73.8 µM (inactive) | > 52.8 µM (inactive) | > 100 µM (inactive) | > 78 µM (inactive) | > 100 µM (inactive) | > 100 µM (inactive) | > 68.2 µM (inactive) | – | > 100 µM (inactive) | > 84.1 µM (inactive) | > 100 µM (inactive) | > 100 µM (inactive) | > 70.3 µM (inactive) |
| CN(C)CC(C)(C)C(=O)/C=C/c1ccc(/C=C/C(=O)C(C)(C)CN(C)C)cc1 | 1.6 µM (inactive) | 1.47 µM (inactive) | 1.03 µM (active) | – | 0.605 | 0.682 µM (active) | 0.51 µM (active) | 0.202 µM (active) | 1.87 µM (inactive) | 3.78 µM (inactive) | 1.82 µM (inactive) | 2.81 µM (inactive) | 1.42 µM (inactive) | – | 1.64 µM (inactive) | 1.61 µM (inactive) | 1.99 µM (inactive) | 2.23 µM (inactive) | 1.58 µM (inactive) |
